Experimental data reported in US8329726B2, “Inhibitors of VEGF receptor and HGF receptor signaling” (MethylGene Inc., priority 2005, dated 2012).
Where two headings read alike, the source gives them in different places.

Tests used:
[1] = target: T1, recombinant human c-Met/HGF receptor (Homo sapiens, UniProt P08581); assay: In vitro receptor tyrosine kinase assay (DELFIA), c-Met/HGF receptor; format: biochemical
T1 construct: His tag (pBlueBacHis2A vector); made in house; host or cells: Hi-5 cells (Trichoplusia ni), baculovirus
Protocol: Cell pellets were frozen at −80° C. until purification was performed.
(§1) The coated plates were washed and stored at 4° C. […] After incubation, the kinase reactions were quenched with EDTA and the plates were washed.

VEGF receptor KDR = target: T2, VEGF receptor KDR (Homo sapiens, UniProt P35968); assay: In vitro receptor tyrosine kinase assay (DELFIA), VEGF receptor KDR; format: biochemical
T2 construct: made in house; host or cells: Sf9 cells (Spodoptera frugiperda), baculovirus
Protocol: In the case of VEGF receptor KDR a 1.6-kb cDNA corresponding to the catalytic domain of VEGFR2 or KDR (Genbank accession number AF035121 amino acid 806 to 1356) was cloned into the Pst I site of the pDEST20 Gateway vector (Invitrogen) for the production of a GST-tagged version of that enzyme.
The GST-VEGFR2806-1356 protein was expressed in […] (Spodoptera frugiperda) upon infection with recombinant baculovirus construct. […] Cell pellets were frozen at −80° C. until purification was performed.
The supernatant (cell extract) was used as starting material for purification of GST-VEGFR2806-1356.
The supernatant was loaded onto a GST-agarose column (Sigma) equilibrated with PBS pH 7.3. Following a four column volume (CV) wash with PBS pH 7.3+1% Triton X-100 and 4 CV wash with buffer B (50 mM Tris pH 8.0, 20% glycerol and 100 mM NaCl), bound proteins were step eluted with 5 CV of buffer B supplemented with 5 mM DTT and 15 mM glutathion. GST-VEGFR2806-1356 enriched fractions from this chromatography step were pooled based on U.V. trace i.e. fractions with high O.D.280. Final GST-VEGFR2806-1356 protein preparations concentrations were about 0.7 mg/ml with purity approximating 70%.
as §1

A549 = A549 wound healing inhibition (HGF dependent migration); format: cell-based; conditions: Homo sapiens, A549 cells, read-out: A549 WOUND HEALING INHIB IC50
From the text: (§2) HGF has well known activity in terms of inducing scattering and migration (wound healing) (Wells et al., Cell Motil Cytoskeleton. 2005 November 62(3):180-94; Miura et al., Urology 2001 December 58(6):1064-9; Nishimura et al., Int J Urol. 1998 May 5(3):276-81; Wang et al., Mol Cancer Ther. 2003 November; 2(11):1085-92; and Christensen et al., Cancer Res. 2003 Nov. 1; 63(21):7345-55).

DU145 = DU145 scattering inhibition (HGF dependent scattering); format: cell-based; conditions: Homo sapiens
From the text: as §2

[2] = DU-145, HGF dependent scattering, DU145 cells, read-out: DU145 SCATTERING INHIB IC50
[3] = DU-145, read-out: DU145 […] IC50
[4] = recombinant c-Met IC, 10 uM ATP, DELFIA, read-out: C-Met (IC50)
[5] = GST-VEGFR2 806-1356, 0.6 uM ATP, DELFIA, read-out: VEGFR (IC50)

T2 sequence (P35968 806-1356): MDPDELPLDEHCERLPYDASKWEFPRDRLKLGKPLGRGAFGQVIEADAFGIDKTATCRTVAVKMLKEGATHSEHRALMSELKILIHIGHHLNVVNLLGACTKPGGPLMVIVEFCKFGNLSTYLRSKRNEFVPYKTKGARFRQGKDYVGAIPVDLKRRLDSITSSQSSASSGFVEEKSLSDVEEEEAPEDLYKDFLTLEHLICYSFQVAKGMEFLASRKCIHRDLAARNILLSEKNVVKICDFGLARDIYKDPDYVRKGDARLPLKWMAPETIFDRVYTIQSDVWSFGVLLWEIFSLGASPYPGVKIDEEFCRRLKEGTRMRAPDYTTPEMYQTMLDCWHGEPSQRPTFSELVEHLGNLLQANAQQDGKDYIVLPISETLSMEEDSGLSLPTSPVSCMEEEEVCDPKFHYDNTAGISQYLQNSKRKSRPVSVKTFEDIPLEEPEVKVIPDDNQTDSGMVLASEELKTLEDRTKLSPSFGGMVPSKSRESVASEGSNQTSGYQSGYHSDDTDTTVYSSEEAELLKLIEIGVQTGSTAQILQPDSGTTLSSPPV
T1 sequence (P08581 1078-1337): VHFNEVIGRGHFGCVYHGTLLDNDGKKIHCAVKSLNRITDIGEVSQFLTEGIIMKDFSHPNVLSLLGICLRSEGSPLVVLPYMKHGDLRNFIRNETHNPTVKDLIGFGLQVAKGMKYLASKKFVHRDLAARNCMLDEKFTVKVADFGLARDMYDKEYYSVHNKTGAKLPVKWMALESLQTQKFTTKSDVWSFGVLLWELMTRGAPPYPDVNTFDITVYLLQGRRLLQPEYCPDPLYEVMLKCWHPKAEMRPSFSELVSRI

Row | SMILES | IC50 ([1]; read-out: CMET IC50) | IC50 (VEGF receptor KDR; read-out: VEGFR IC50) | IC50 (A549) | IC50 (DU145; [2]) | IC50 [1, 4] | IC50 (VEGF receptor KDR; [5]) | IC50 (DU145; [3]) | IC50 [1]
1 | Cn1cncc1-c1cc2nccc(Oc3ccc(NC(=O)CC(=O)Nc4ccccc4O)cc3F)c2s1 | 50 to 250 nM | < 50 nM | > 10000 nM | 1000 to 5000 nM | – | – | – | –
2 | COc1ccccc1NC(=O)CC(=O)Nc1ccc(Oc2ccnc3cc(C4=CCCN(C)C4)sc23)c(F)c1 | 50 to 250 nM | 250 to 500 nM | 1000 to 5000 nM | 1000 to 5000 nM | – | – | – | –
3 | COc1ccccc1NC(=O)CC(=O)Nc1ccc(Oc2ccnc3cc(-c4c[nH]cn4)sc23)c(F)c1 | 50 to 250 nM | 50 to 250 nM | < 1000 nM | < 1000 nM | – | – | – | –
4 | CCCn1cnc(-c2cc3nccc(Oc4ccc(NC(=O)CC(=O)Nc5ccc(F)cc5)cc4F)c3s2)c1 | < 50 nM | < 50 nM | < 1000 nM | < 1000 nM | – | – | – | –
5 | COc1ccccc1NC(=O)CC(=O)Nc1ccc(Oc2ccnc3cc(-c4cn(CCN(C)C)cn4)sc23)c(F)c1 | 50 to 250 nM | < 50 nM | < 1000 nM | < 1000 nM | – | – | – | –
6 | Cn1cnc(-c2cc3nccc(Oc4ccc(NC(=O)C5(C(=O)Nc6ccc(F)cc6)CC5)cc4F)c3s2)c1 | < 50 nM | < 50 nM | < 1000 nM | < 1000 nM | – | – | – | –
7 | CCn1cc(-c2cc3nccc(Oc4ccc(NC(=O)CC(=O)Nc5ccccc5OC)cc4F)c3s2)nc1C | 50 to 250 nM | < 50 nM | < 1000 nM | < 1000 nM | – | – | – | –
8 | Cn1cnc(-c2cc3nccc(Oc4ccc(NC(=O)C5(C(=O)Nc6ccccc6F)CC5)cc4F)c3s2)c1 | < 50 nM | < 50 nM | 1000 to 5000 nM | < 1000 nM | – | – | – | –
9 | Cn1cnc(-c2cc3nccc(Oc4ccc(NC(=O)N5CCN(c6ccccc6)C5=O)cc4F)c3s2)c1 | – | < 50 nM | < 1000 nM | – | – | – | < 1000 nM | –
10 | Cn1cnc(-c2cc3nccc(Oc4ccc(NC(=O)CC(Nc5ccccc5)C(F)(F)F)cc4F)c3s2)c1 (stereo not drawn) | – | 50 to 250 nM | 1000 to 5000 nM | – | – | – | 1000 to 5000 nM | –
11 | Cn1cnc(-c2cc3nccc(Oc4ccc(NC(CC(=O)Nc5ccccc5)C(F)(F)F)cc4F)c3s2)c1 (stereo not drawn) | – | < 50 nM | 1000 to 5000 nM | – | – | – | 1000 to 5000 nM | –
12 | CCn1cnc(-c2cc3nccc(Oc4ccc(NC(=O)CC(=O)Nc5ccccc5)cc4F)c3s2)c1 [Compound 5d, N^1-(4-(2-(1-Ethyl-1H-imidazol-4-yl)thieno[3,2-b]pyridin-7-yloxy)-3-fluorophenyl)-N^3-phenylmalonamide] | – | – | – | – | – | 5 nM | – | 19 nM
13 | CCn1cnc(-c2cc3nccc(Oc4ccc(NC(=O)CC(=O)Nc5ccccc5OC)cc4F)c3s2)c1 [Compound 28b, N^1-(4-(2-(1-Ethyl-1H-imidazol-4-yl)thieno[3,2-b]pyridin-7-yloxy)-3-fluorophenyl)-N^3-(2-methoxyphenyl)malonamide] | – | – | – | – | 25 nM | 3 nM | – | –
14 | Cn1ccnc1-c1cc2nccc(Oc3ccc(NC(=O)CC(=O)Oc4ccccc4)cc3F)c2s1 [Compound 47, N-{3-Fluoro-4-[2-(1-methyl-1H-imidazol-2-yl)-thieno[3,2-b]pyridin-7-yloxy]-phenyl}-malonamic acid phenyl ester] | – | – | – | – | 173 nM | 14 nM | – | –
15 | O=C(CC(=O)Nc1ccc(Oc2ccnc3cc(C(=O)N4CCCC4)sc23)c(F)c1)Nc1ccccc1 [drawing 280] | < 50 nM | < 50 nM | – | – | – | – | – | –
16 | CCn1cnc(-c2cc3nccc(Oc4ccc(NC(=O)CC(=O)Nc5ccccc5)cc4F)c3s2)c1 [drawing 291] | < 50 nM | 50 to 250 nM | – | – | – | – | – | –

More lines, main results first:

Row | IC50 ([1]; read-out: CMET IC50) | IC50 (VEGF receptor KDR; read-out: VEGFR IC50) | IC50 (A549) | IC50 (DU145; [2]) | IC50 [1, 4] | IC50 (VEGF receptor KDR; [5]) | SMILES | IC50 (DU145; [3]) | IC50 [1]
17 | > 500 nM | > 500 nM | > 10000 nM | > 10000 nM | – | – | Cn1ccnc1-c1cc2nccc(Oc3ccc(NC(=O)CC(=O)OC4CCNCC4)cc3F)c2s1 | – | –
18 | 50 to 250 nM | < 50 nM | 1000 to 5000 nM | < 1000 nM | – | – | COCn1cnc(-c2cc3nccc(Oc4ccc(NC(=O)CC(=O)Nc5ccccc5OC)cc4F)c3s2)c1 | – | –
19 | < 50 nM | < 50 nM | 1000 to 5000 nM | 1000 to 5000 nM | – | – | CCn1cnc(-c2cc3nccc(Oc4ccc(NC(=O)CC(=O)Nc5ccccc5O)cc4F)c3s2)c1 | – | –
20 | 50 to 250 nM | 50 to 250 nM | < 1000 nM | < 1000 nM | – | – | COc1ccccc1NC(=O)CC(=O)Nc1ccc(Oc2ccnc3cc(N4CCCC4=O)sc23)c(F)c1 | – | –
21 | < 50 nM | < 50 nM | < 1000 nM | < 1000 nM | – | – | COCCn1cnc(-c2cc3nccc(Oc4ccc(NC(=O)CC(=O)Nc5ccccc5)cc4F)c3s2)c1 | – | –
22 | < 50 nM | < 50 nM | < 1000 nM | < 1000 nM | – | – | Cn1cnc(-c2cc3nccc(Oc4ccc(NC(=O)C5(C(=O)Nc6ccccc6)CC5)cc4F)c3s2)c1 | – | –
23 | 50 to 250 nM | < 50 nM | < 1000 nM | < 1000 nM | – | – | CCn1cnc(-c2cc3nccc(Oc4ccc(NC(=O)CC(=O)NC5CCCCC5)cc4F)c3s2)c1 | – | –
24 | 50 to 250 nM | < 50 nM | 1000 to 5000 nM | < 1000 nM | – | – | CCCn1cnc(-c2cc3nccc(Oc4ccc(NC(=O)CC(=O)Nc5cccc(F)c5)cc4F)c3s2)c1 | – | –
25 | 250 to 500 nM | > 500 nM | 1000 to 5000 nM | 1000 to 5000 nM | – | – | COc1ccccc1NC(=O)CC(=O)Nc1ccc(Oc2ccnc3cc(C(=O)NN(C)C)sc23)c(F)c1 | – | –
26 | 250 to 500 nM | > 500 nM | > 10000 nM | > 10000 nM | – | – | CN(C)NC(=O)c1cc2nccc(Oc3ccc(NC(=O)CC(=O)N(C)c4ccccc4)cc3F)c2s1 | – | –
27 | 50 to 250 nM | < 50 nM | < 1000 nM | < 1000 nM | – | – | CN(C(=O)CC(=O)Nc1ccc(Oc2ccnc3cc(-c4cn(C)cn4)sc23)c(F)c1)c1ccccc1 | – | –
28 | < 50 nM | < 50 nM | < 1000 nM | < 1000 nM | – | – | O=C(CC(=O)Nc1ccc(Oc2ccnc3cc(-c4cn(CCO)cn4)sc23)c(F)c1)Nc1ccccc1 | – | –
29 | 50 to 250 nM | < 50 nM | 1000 to 5000 nM | 1000 to 5000 nM | – | – | COc1ccc(NC(=O)C2(C(=O)Nc3ccc(Oc4ccnc5cc(-c6cn(C)cn6)sc45)c(F)c3)CC2)cc1 | – | –
30 | 50 to 250 nM | – | 1000 to 5000 nM | < 1000 nM | – | – | CN(c1ccc(NC(=O)C2(C(=O)Nc3ccccc3)CC2)cc1F)c1ccnc2cc(-c3cn(C)cn3)sc12 | – | –
31 | – | – | – | – | 270 nM | 199 nM | O=C(CC(=O)Nc1ccc(Oc2ccnc3ccsc23)c(F)c1)Nc1ccccc1 [Compound 5a, N^1-(3-Fluoro-4-(thieno[3,2-b]pyridin-7-yloxy)phenyl)-N^3-phenylmalonamide] | – | –
32 | – | – | – | – | 65 nM | 89 nM | CN(C)[C@@H]1CCN(C(=O)c2cc3nccc(Oc4ccc(NC(=O)CC(=O)Nc5ccccc5)cc4F)c3s2)C1 [Compound 5g, (R)—N^1-(4-(2-(3-(Dimethylamino)pyrrolidine-1-carbonyl)thieno[3,2-b]pyridin-7-yloxy)-3-fluorophenyl)-N^3-phenylmalonamide] | – | –
33 | – | – | – | – | 24 nM | – | CCn1cnc(-c2cc3nccc(Oc4ccc(NC(=O)CC(=O)Nc5ccccc5F)cc4F)c3s2)c1 [Compound 30b, N^1-(4-(2-(1-Ethyl-1H-imidazol-4-yl)thieno[3,2-b]pyridin-7-yloxy)-3-fluorophenyl)-N^3-(2-fluorophenyl)malonamide] | – | –
34 | – | – | – | – | 77 nM | 5 nM | CC(C(=O)Nc1ccccc1)C(=O)Nc1ccc(Oc2ccnc3cc(-c4nccn4C)sc23)c(F)c1 (stereo not drawn) [Compound 38, N^1-(3-Fluoro-4-(2-(1-methyl-1H-imidazol-2-yl)thieno[3,2-b]pyridin-7-yloxy)phenyl)-2-methyl-N^3-phenylmalonamide] | – | –
35 | – | – | – | – | 132 nM | 24 nM | Cn1cncc1-c1cc2nccc(Oc3ccc(NC(=O)CC(=O)Nc4cccnc4)cc3F)c2s1 [Compound 41, N-{3-Fluoro-4-[2-(3-methyl-3H-imidazol-4-yl)-thieno[3,2-b]pyridin-7-yloxy]-phenyl}-N′-pyridin-3-yl-malonamide] | – | –
36 | – | – | – | – | 60 nM | 13 nM | COc1ccccc1NC(=O)CC(=O)Nc1ccc(Oc2ccnc3cc(-c4ccc(CN5CCCC5)cc4)sc23)c(F)c1 [Compound 48, N^1-(3-Fluoro-4-(2-(4-(pyrrolidin-1-ylmethyl)phenyl)-thieno[3,2-b]pyridin-7-yloxy)phenyl)-N^3-(2-methoxyphenyl)malonamide] | – | –
